Results taken from patent US20100240711A1, “SOLID PREPARATION COMPRISING NPYY5 RECEPTOR ANTAGONIST” (SHIONOGI & CO., LTD., priority 2007, published 2010).
Values after ≈ are worked out from the molar mass of the structure shown.

Assay: Solubility of S-2367 in water (Japanese Pharmacopoeia, Dissolution Test, Second Solution)
Type: physicochemical
Settings: 37 °C, pH 6.8, aqueous buffer
Source text: A particularly preferable compound is trans-N-(5-trifluoromethylpyridin-2-yl)-4-(tertiarybutylsulfonylamino)cyclohexanecarboxamide (S-2367). The compound is a crystal under a room temperature.
The NPYY5 receptor antagonist of the present invention is not particularly limited as far as it is a drug which can be orally administered, but is preferably a drug having low solubility in water, so-called poorly water-soluble drug.

solubility: ~3.5 µg/mL (≈ 8.59 µM)
Structure (SMILES): CC(C)(C)S(=O)(=O)N[C@H]1CC[C@H](C(=O)Nc2ccc(C(F)(F)F)cn2)CC1 [Example S-2367, trans-N-(5-trifluoromethylpyridin-2-yl)-4-(tertiarybutylsulfonylamino)cyclohexanecarboxamide]
